{
  "source": "paper PMC6801585",
  "about": "“Improved In Vivo Anti-Tumor and Anti-Metastatic Effect of GnRH-III-Daunorubicin Analogs on Colorectal and Breast Carcinoma Bearing Mice” (International Journal of Molecular Sciences, 2019)",
  "key": {"[1]": {"tested_on": "OVCAR-3", "test": "In vitro anti-proliferative activity (MTT assay)", "assay_type": "cell-based", "details": "Homo sapiens, OVCAR-3 (ovarian), 24 h treatment + 48 h culture, average ± SD", "procedure": "(§1) In experimental procedures following cell lines were used, MDA-MB-231 and MCF-7 (human breast cancer), 4T1 (mice breast cancer), DU145 and PC-3 (human prostate cancer), A2780, OVCAR-3 and OVCAR-8 (human ovarian cancer), HepG2 (human liver cancer), A2058, WM983b, HT168-M1/9 and M24 (human melanoma), B16 (mice melanoma), H1975, H1650 and A549 (human lung cancer), HT-29 (human colorectal adenocarcinoma), C26 (mice colon cancer) and PANC-1 (pancreatic cancer) were cultured in RPMI 1640 Medium with glutamine (Roswell Park Memorial Institute Medium, Lonza, Basel, Switzerland). Moreover, U87MG (human malignant glioma) and MRC-5 (normal human fibroblast) were cultured in Dulbecco’s Modified Eagle’s Medium (DMEM, Lonza) and PE/CA-PJ15 and PE/CA-PJ41 (head and neck cancer) were cultured in Iscove’s Modified Dulbecco’s Medium (IMEM, Sigma Aldrich, St. Louis, MO, USA). Apart from the cell culture medium for OVCAR-3 cells, all media were supplemented with 10% heat-inactivated FBS (Fetal Bovine Serum, Euroclone, Milan, Italy) and 1% Penicillin/Streptomycin (Sigma Aldrich), while OVCAR-3 cells were cultured in 20% FBS containing RPMI medium. The cell lines were mainly obtained from ATCC, except for PE/CA-PJ15, PE/CA-PJ41 (ECACC), A2058 (kindly provided by L.A. Liotta, NCI, Bethesda, MD, USA), HT-168-M1/9 (derived from A2058), M24 (kind gift from B.M. Mueller, Scripps Research Institute, La Jolla, CA, USA) and WM983b (kindly provided by Meenhard Herlyn, Wistar Institute, Philadelphia, PA, USA). Cells were cultured in sterile T25 or T75 flasks with ventilation cap (Sarstedt, Nümbrecht, Germany) at 37 °C in a humidified atmosphere with 5% CO2.\n(§2) For the evaluation of the in vitro anti-proliferative activity of the GnRH-III conjugates and free Dau, the cell viability was determined by MTT assay (3-(4,5-dimethylthiazol-2-yl)-2,5-diphenyl-tetrazolium bromide) that was obtained from Sigma Aldrich. After standard harvesting of the cells by trypsin-EDTA (Lonza), 4 × 10^3 till 10 × 10^3 cells per well depending on cell line, were seeded in serum containing growth medium to 96-well plates (Sarstedt) and incubated. After 24 h, the growth medium was removed and cells were treated with various concentrations of conjugates 1 and 2 (32 nM–100 µM) or free Dau (0.1 nM–10 µM), dissolved in serum free medium and incubated for 24 h under standard conditions. The control wells were treated with serum free medium. After 24 h of treatment, the cells were washed twice with serum free medium and then cultured in serum containing medium for an additional 48 h. Afterward, the MTT assay was performed, in order to determine cell viability, by adding 20 µL of MTT solution (5 mg/mL in PBS) to each well and after 2 h of incubation at 37 °C, the supernatant was removed. The formazan crystals were dissolved in 100 µL of a 1:1 solution of DMSO (Sigma Aldrich):EtOH (Molar Chemicals Kft., Halásztelek, Hungary) and the absorbance was measured after 15 min. at λ = 570 nm by using a microplate reader (Bio-Rad, model 550, Hercules, CA, USA). The IC50 values of the conjugates and free drug were calculated while using GraphPad Prism 6 (GraphPad Software, San Diego, CA, USA). The experiments were done in triplicate and each experiment was repeated twice."}, "[2]": {"tested_on": "4T1", "test": "In vitro anti-proliferative activity (MTT assay)", "assay_type": "cell-based", "details": "Mus musculus, 4T1 (mice breast), 24 h treatment + 48 h culture, average ± SD", "procedure": "as §1, §2"}, "[3]": {"tested_on": "HT168-M1/9", "test": "In vitro anti-proliferative activity (MTT assay)", "assay_type": "cell-based", "details": "Homo sapiens, HT168-M1/9 (melanoma), 24 h treatment + 48 h culture, average ± SD", "procedure": "as §1, §2"}, "[4]": {"tested_on": "PE/CA-PJ41", "test": "In vitro anti-proliferative activity (MTT assay)", "assay_type": "cell-based", "details": "PE/CA-PJ41 (head and neck), 24 h treatment + 48 h culture, average ± SD", "procedure": "as §1, §2"}, "[5]": {"tested_on": "PC-3", "test": "In vitro anti-proliferative activity (MTT assay)", "assay_type": "cell-based", "details": "Homo sapiens, PC-3 (prostate), 24 h treatment + 48 h culture, average ± SD", "procedure": "as §1, §2"}, "[6]": {"tested_on": "H1650", "test": "In vitro anti-proliferative activity (MTT assay)", "assay_type": "cell-based", "details": "Homo sapiens, NCI-H1650, H1650 (lung), 24 h treatment + 48 h culture, average ± SD", "procedure": "as §1, §2"}, "[7]": {"tested_on": "A2058", "test": "In vitro anti-proliferative activity (MTT assay)", "assay_type": "cell-based", "details": "Homo sapiens, A2058 (melanoma), 24 h treatment + 48 h culture, average ± SD", "procedure": "as §1, §2"}, "[8]": {"tested_on": "4T1 mice breast carcinoma", "test": "Orthotopic 4T1 mice breast tumor model", "assay_type": "in vivo, BALB/c female mice", "protocol": "Adult BALB/c female mice (20–25 g) were used in this experiment and kept under the same conditions, as described above. 4T1 mice breast carcinoma cells, maintained as described above, were orthotopically injected into the lower quarter of the right mammary fat pad line of mice, whereby 1 × 10^6 cells were used per animal, suspended in 50 µL M199 medium (Sigma Aldrich). The treatment started seven days after cells inoculation, when the average tumor volume was 38 mm^3, by i.p. administration of the conjugates or free Dau. Four groups with seven animals per group were established and treated with certain doses and schedules. The mice in the control group were treated with sterile water, while mice in free Dau group were treated with a dose of 1 mg/kg, once per week, on days 7, 14 and 21 after cells inoculation. […] Animal weight and tumor volumes were measured initially when the treatment started and at periodic intervals according to the treatment schedule. A digital caliper was used to measure the longest (a) and the shortest diameter (b) of a given tumor. The tumor volume was calculated while using the formula V = ab^2 × π/6, whereby a and b represent the measured parameters (length and width). The termination of the experiment was initiated 28 days after cell inoculation, respectively 22 days after treatment start, since the average volume of the tumors in the control group reached 1800 mm^3. The mice from all groups were sacrificed by cervical dislocation. The anti-tumor effects and the liver toxicity of the conjugates and free Dau were evaluated based on the tumor volume and the liver weight/body weight ratio in each group. Moreover, the anti-proliferative and anti-metastatic activity of the conjugates and free Dau was evaluated in primary tumor and in metastases on the peripheral organs.\nThe routinely formalin-fixed tumors were dehydrated in a graded series of ethanol, infiltrated with xylene and embedded into paraffin at a temperature not exceeding 60 °C. Two micron thick sections were mounted on Superfrost slides (Thermo Shandon, Runcorn, UK) and then manually deparaffinized. To block endogenous peroxidase activity, slides were treated for 20 min. at r.t. with 3% H2O2 in methanol. The slides were immersed in 6% citrate buffer (pH = 6) and exposed to 98 °C water bath for 40 min. […] After washing, secondary antibody Biotinylated Link (Dako) was applied for 10 min. at r.t. For visualization, supersensitive one step polymer HRP (Biogenex, Fremont, CA, USA) was used with 3-amino-9-ethylcarbazole (AEC) as chromogen. Staining without the primary antibody served as the negative control.\nLiver, spleen, lung and kidneys were harvested and fixed in formalin. All of the visible macro-metastatic lesions of the peripheral organs of seven animals from the control and treated groups on a stereo microscope Kruss MSZ5600 (Kruss Optronic, Hamburg, Germany) under 7–45-fold magnification were counted. The percentages of macro-metastatic lesions in the treated groups compared to the control group was calculated.\nProliferation marker stained samples were evaluated on light microscope Olympus BH-2 microscope (Olympus, Tokyo, Japan). […] The proliferation index was calculated as percentage of KI-67 positive cells from all cells in the field of view."}, "[9]": {"test": "Chronic toxicity study on healthy mice", "assay_type": "in vivo", "details": "healthy BALB/c female mice; i.p.; conjugates 15 mg/kg Dau content x5 (days 1,3,6,8,10); free Dau 1 mg/kg x2 (days 1,8); 14 days; 3 mice per group", "procedure": "Adult female inbred BALB/c mice from a specified pathogen free (SPF) breeding of the National Institute of Oncology (Budapest, Hungary), were used in acute and chronic toxicity studies and in orthotopic 4T1 mice breast tumor model experiment. The mice were kept in a sterile environment in Makrolon® cages at 22–24 °C (40–50% humidity), with a lighting regulation of 12/12 h light/dark. The animals had free access to tap water and were fed with a sterilized standard diet (VRF1, autoclavable, Akronom Kft., Budapest, Hungary) ad libitum.\nIn order to determine the toxicity of the conjugates, in vivo acute and chronic toxicity studies were performed on healthy animals. In acute toxicity study, adult BALB/c female mice (20–23 g) were treated by a single intraperitoneal (i.p.) injection of conjugate 2, whereby different doses (3.125, 6.25, 12.5, 25 and 50 mg/kg Dau content) were administrated to each groups (three mice per group). In chronic toxicity studies, adult female BALB/c mice (23–26 g) were treated either with GnRH-III conjugates by i.p. administration with a dose of 15 mg/kg Dau content on day 1, 3, 6, 8 and 10, or with free Dau (1 mg/kg) on day 1 and 8. In case of the control group, sterile water was administered. Each group consisted of three mice. The toxicity was evaluated on the basis of life span, behavior and appearance of the mice, as well as the body weight. […]"}, "[10]": {"tested_on": "MDA-MB-231 human breast carcinoma", "test": "Orthotopic MDA-MB-231 human breast tumor model", "assay_type": "in vivo, SCID female mice", "protocol": "Adult SCID female mice (22–28 g) were used in this experiment and kept under the same conditions, as described above. […] The treatments started 21 days after cells inoculation, when average tumor volume was 40 mm^3. Free Dau and conjugates were administrated by i.p. injection. Four groups with seven animals per group were established and treated with certain doses and schedules. The mice in the control group were treated with sterile water, while the mice in the free Dau group were treated with a dose of 1 mg/kg, once per week, on day 21, 28, 35 and 42 after cell inoculation. […] The last treatment was performed on day 42 after cell inoculation, whereby a dose of 7.5 mg/kg Dau content was applied. The animal weights and tumor volumes were measured when the treatment was initiated and at periodic intervals according to the treatment schedule. The tumor volume was calculated in the same manner as described for mice breast carcinoma. […] The mice from all groups were sacrificed by cervical dislocation and primary tumors and livers were harvested and weighed, while number of animals with metastases were counted. The anti-tumor effects of the conjugates were evaluated measuring the tumor volume and the tumor weights, while the toxicity effects of conjugates were evaluated measuring liver weights and calculating the liver weight/body weight ratio."}, "[11]": {"details": "vs control, 1 and 2 10 mg/kg Dau content x6, free Dau 1 mg/kg x3, day 28, 7 animals"}, "[12]": {"details": "SCID mice, i.p., 1 and 2 15 mg/kg Dau content x6 + 7.5 mg/kg x1, free Dau 1 mg/kg x4, day 45, 7 per group"}},
  "note": "“And” between values parts separate entries of the source, which are not always exact repeats. Identical values can stand only once.",
  "data": [
    {"smiles": "COc1cccc2c1C(=O)c1c(O)c3c(c(O)c1C2=O)C[C@@](O)(C(C)=O)C[C@@H]3O[C@H]1C[C@H](N)[C@H](O)[C@H](C)O1", "note": "[Dau, daunorubicin]", "values": [
      {"measurement": "IC50", "setting": "[1]", "value": "404 ± 9.4", "unit": "nM"},
      {"measurement": "IC50", "setting": "[2]", "value": "56 ± 14.7", "unit": "nM"},
      {"measurement": "IC50", "setting": "[3]", "value": "27.5 ± 9.1", "unit": "nM"},
      {"measurement": "IC50", "setting": "[4]", "value": "45.6 ± 33.5", "unit": "nM"},
      {"measurement": "IC50", "setting": "[5]", "value": "32.7 ± 4.7", "unit": "nM"},
      {"measurement": "IC50", "setting": "[6]", "value": "50.3 ± 13.4", "unit": "nM"},
      {"measurement": "IC50", "setting": "[7]", "value": "35.1 ± 14.9", "unit": "nM"},
      {"measurement": "Decrease of liver/body weight ratio compared to control", "setting": "[8]; 1 and 2 10 mg/kg Dau content x6, free Dau 1 mg/kg x3, day 28", "value": 9.8, "unit": "%"},
      {"measurement": "Animal body weight at the end of experiment compared to the start", "setting": "[8]; BALB/c mice, i.p., 1 and 2 10 mg/kg Dau content x6, free Dau 1 mg/kg x3, day 28, 7 per group", "value": "slightly decreased"},
      {"measurement": "Inhibition of proliferation index of lung metastases", "setting": "[8]; KI-67, vs control, 1 and 2 10 mg/kg Dau content x6, free Dau 1 mg/kg x3", "value": "27.8% and 28%"},
      {"measurement": "Decrease of proliferation index in primary tumor compared to control", "setting": "[8]; KI-67 positive cells, 400x, 1 and 2 10 mg/kg Dau content x6, free Dau 1 mg/kg x3, day 28", "value": 19, "unit": "%"},
      {"measurement": "Inhibition of number of micro-metastases in the lung compared to control", "setting": "[8]; KI-67 stained, per field of view 100x, 1 and 2 10 mg/kg Dau content x6, free Dau 1 mg/kg x3", "value": "33.7% and 34%"},
      {"measurement": "Decrease of spleen weight compared to control", "setting": "[8]; day 28, 7 per group, Figure S2", "value": 27.2, "unit": "%"},
      {"measurement": "Decrease of number of macro-metastases in lung", "setting": "[8]; [11]", "value": 55.4, "unit": "%"},
      {"measurement": "Decrease of number of macro-metastases in spleen", "setting": "[8]; [11]", "value": 64.3, "unit": "%"},
      {"measurement": "Chronic toxicity: body weight, general looking and behavior", "setting": "[9]", "value": "could not observe a significant change in body weight"},
      {"measurement": "Decrease of liver/body weight ratio compared to control", "setting": "[10]; 1 and 2 15 mg/kg Dau content x6 + 7.5 mg/kg x1, free Dau 1 mg/kg x4, day 45", "value": 16.8, "unit": "%"},
      {"measurement": "Decrease of body weight at the end of experiment compared to the beginning", "setting": "[10]; [12]", "value": 20, "unit": "%"},
      {"measurement": "Inhibition of tumor volume compared to control", "setting": "[10]; [12]", "value": "46.3% and 46%"},
      {"measurement": "Inhibition of tumor weight", "setting": "[10]; [12]", "value": 40.1, "unit": "%"},
      {"measurement": "Number of mice with metastases close to the primary tumor", "setting": "[10]; end of experiment day 45, control 5/5", "value": "four out of seven and 4/7 and 4/7 ^2"}
    ]}
  ]
}
